Measurements: US20260077072A1, “METHODS AND COMPOSITIONS FOR IMAGING MALIGNANCIES IN THE BONE MARROW” (Washington University, priority 2022, published 2026)

Key:
[1] = tested on: osteolytic lesion in the right iliac bone; assay: 18F-FDG PET/CT of a multiple myeloma patient; type: in vivo, human; settings: same osteolytic lesion in right iliac bone of MM patient
[2] = reported for other copper radiopharmaceuticals; cited from earlier work
[3] = tested on: CD-1 mice; assay: Non-GLP tolerability and toxicity study of Cu-LLP2A V2, single IV bolus; type: in vivo
Experimental: To evaluate the tolerability and toxicity of Cu-CB-TE1A1P-PEG4-LLP2A V2 (Cu-LLP2A V2) tracer/imaging agent when administered once on Day 1 by intravenous (IV) bolus administration to male and female CD-1 mice, the following experiments were conducted. On Day 2 after administering the tracer/imaging agent, the first 10 animals/sex/group (Main Study) were sacrificed and necropsied. The remaining 5 animals/sex/group (Recovery) were weighed and observed for the remainder of the study and necropsied on Day 15.
Each treatment group (Groups 1-2) was comprised of […] CD-1 mice. Mice were administered either vehicle or 0.0604 mg/mouse Cu-LLP2A V2 (Groups 1 and 2, respectively) once on Day 1 via IV bolus injection at a dose volume of 0.125 mL/mouse. Physical examinations were recorded at the time of randomization. Clinical observations were recorded daily. Body weight measurements were taken for randomization and daily. Blood samples for the evaluation of hematology and clinical chemistry were collected on Day 2 (Main Study) and Day 15 (Recovery). Following blood sample collections, a necropsy was conducted. Protocol-specified tissues were collected and evaluated grossly, select organs were weighed, and tissues were fixed for microscopic evaluation. Tissues were subsequently processed and evaluated microscopically.

Compound: OC[C@H]1OC(O)[C@H]([18F])[C@@H](O)[C@@H]1O (stereo partly drawn) [^18F-FDG, [^18F]fluorodeoxyglucose]
- SUL-peak (per PERCIST) in lesion [1]: 2.1
- SUV-max in lesion [1]: 2.9

Compound: CN=C([S-])N/N=C(C)/C(C)=N/NC([S-])=NC.[64Cu+2] [^64Cu-ATSM]
- Effective dose [2]: 0.036 mSv/MBq

Compound: Cu-CB-TE1A1P-PEG4-LLP2A V2 [Cu-LLP2A V2]
- Survival ([3]; 0.0604 mg/mouse IV, until scheduled sacrifice (Day 2 or Day 15)): All animals survived
- Tolerability ([3]; single IV injection of 0.0604 mg/mouse, male and female CD-1 mice): well tolerated
- NOEL (No Observable Effect Level) ([3]; single IV injection, male and female CD-1 mice): 0.0604 mg/mouse
